According to US20100160356A1, “NOVEL CYCLOBUTYL COMPOUNDS AS KINASE INHIBITORS” (priority 2006, published 2010):

How the values were obtained:
IGF1R = IGF1R (Homo sapiens, UniProt P08069); experiment: Inhibition of IGF1R (flashplate assay); format: biochemical; settings: flashplate method
Method in brief: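 IGF1R kinase incubated 1 hr at room temperature with ^33P-ATP and biotinylated poly(Glu,Tyr)4:1 ± test compound; stopped with EDTA, wells washed after 30 min. Bound radioactivity counted by scintillation; IC50 calculated.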

IGF1 receptor (IGF1R) = biological target: T1, IGF1 receptor (IGF1R) (Homo sapiens, UniProt P08069); experiment: Inhibition of IGF1R (ELISA assay), IGF1-stimulated autophosphorylation in cells; format: cell-based; settings: human tumour cells stimulated with IGF1, read-out: IC50 IGF (ELISA)
T1 construct: endogenous in cells; host or cells: MCF-7 or Calu-6
T1 sequence (P08069 31-1367): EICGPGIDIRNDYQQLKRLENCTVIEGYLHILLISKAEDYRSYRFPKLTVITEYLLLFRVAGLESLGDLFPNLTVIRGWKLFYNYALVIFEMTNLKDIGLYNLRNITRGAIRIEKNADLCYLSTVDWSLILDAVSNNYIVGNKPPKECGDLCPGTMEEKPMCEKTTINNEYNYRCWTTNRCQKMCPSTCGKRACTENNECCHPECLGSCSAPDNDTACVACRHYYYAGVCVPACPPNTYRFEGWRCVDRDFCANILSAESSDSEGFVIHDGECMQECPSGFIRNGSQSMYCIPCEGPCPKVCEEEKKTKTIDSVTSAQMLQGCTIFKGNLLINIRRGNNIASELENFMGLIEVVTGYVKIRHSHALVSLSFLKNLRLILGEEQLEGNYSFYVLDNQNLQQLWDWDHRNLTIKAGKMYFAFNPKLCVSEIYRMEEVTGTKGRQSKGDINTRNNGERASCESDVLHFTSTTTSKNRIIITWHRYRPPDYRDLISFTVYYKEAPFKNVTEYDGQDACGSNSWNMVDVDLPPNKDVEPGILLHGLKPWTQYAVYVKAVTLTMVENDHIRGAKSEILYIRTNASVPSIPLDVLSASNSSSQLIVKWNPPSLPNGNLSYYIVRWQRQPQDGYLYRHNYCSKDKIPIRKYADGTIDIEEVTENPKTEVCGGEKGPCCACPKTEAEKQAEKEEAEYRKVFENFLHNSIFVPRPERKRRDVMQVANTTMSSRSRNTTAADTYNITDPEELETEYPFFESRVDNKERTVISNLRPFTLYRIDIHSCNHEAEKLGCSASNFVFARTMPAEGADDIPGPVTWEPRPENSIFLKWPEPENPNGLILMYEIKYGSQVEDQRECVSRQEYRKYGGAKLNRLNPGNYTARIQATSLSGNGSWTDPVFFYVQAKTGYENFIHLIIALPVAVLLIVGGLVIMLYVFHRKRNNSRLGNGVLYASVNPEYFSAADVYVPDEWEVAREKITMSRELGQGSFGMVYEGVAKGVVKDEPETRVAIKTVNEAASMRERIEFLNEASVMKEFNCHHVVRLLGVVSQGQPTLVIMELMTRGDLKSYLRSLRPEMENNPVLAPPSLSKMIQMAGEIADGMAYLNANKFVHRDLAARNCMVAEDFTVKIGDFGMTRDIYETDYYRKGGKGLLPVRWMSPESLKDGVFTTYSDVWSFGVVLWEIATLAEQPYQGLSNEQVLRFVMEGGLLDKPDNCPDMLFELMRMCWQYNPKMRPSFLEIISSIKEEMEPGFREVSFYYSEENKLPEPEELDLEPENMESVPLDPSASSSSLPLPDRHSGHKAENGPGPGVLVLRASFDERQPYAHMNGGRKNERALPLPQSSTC
Method in brief: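 Cells were preincubated 45 min with increasing compound concentrations, then stimulated 5 min with IGF1. Phospho-IGF1R in lysates was captured by a receptor-specific antibody and detected with anti-phosphotyrosine antibody via chemiluminescence ELISA or fluorescent LUMINEX read-out.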

[1] = biological target: T2, FAK (focal adhesion kinase) (Homo sapiens, UniProt Q05397); experiment: Inhibition of FAK (ELISA assay), FAK phosphorylation in cells; format: cell-based; settings: human cells with FAK amplification
T2 construct: endogenous in cells; host or cells: Calu-6 or HT-29
T2 sequence (Q05397 whole entry): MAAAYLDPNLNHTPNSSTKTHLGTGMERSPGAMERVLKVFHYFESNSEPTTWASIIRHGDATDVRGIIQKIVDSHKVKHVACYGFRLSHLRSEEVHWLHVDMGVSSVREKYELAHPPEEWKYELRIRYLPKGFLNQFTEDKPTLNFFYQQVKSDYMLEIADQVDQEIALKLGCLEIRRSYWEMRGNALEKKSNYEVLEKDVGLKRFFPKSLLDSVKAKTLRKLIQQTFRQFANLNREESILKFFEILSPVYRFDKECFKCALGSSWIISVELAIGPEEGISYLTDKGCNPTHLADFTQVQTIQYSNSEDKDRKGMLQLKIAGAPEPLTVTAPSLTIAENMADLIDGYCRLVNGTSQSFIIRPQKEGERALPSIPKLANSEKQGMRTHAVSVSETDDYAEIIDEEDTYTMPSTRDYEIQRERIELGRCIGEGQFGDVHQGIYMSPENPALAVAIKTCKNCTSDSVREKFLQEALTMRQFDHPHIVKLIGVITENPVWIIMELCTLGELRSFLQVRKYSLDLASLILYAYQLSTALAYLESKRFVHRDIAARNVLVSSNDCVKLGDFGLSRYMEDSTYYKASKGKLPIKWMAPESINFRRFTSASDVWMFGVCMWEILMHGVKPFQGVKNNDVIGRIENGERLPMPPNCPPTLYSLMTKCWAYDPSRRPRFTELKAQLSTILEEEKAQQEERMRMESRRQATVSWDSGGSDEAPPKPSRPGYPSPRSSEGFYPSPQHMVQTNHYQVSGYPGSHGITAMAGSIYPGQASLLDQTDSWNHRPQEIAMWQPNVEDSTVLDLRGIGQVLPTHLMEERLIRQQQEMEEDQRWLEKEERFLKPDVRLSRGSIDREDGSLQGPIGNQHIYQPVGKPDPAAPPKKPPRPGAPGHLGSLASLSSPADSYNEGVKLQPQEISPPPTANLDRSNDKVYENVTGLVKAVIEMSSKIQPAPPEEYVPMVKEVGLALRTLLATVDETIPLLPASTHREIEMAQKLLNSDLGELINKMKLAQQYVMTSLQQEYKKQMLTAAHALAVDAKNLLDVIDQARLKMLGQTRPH
Method in brief: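 Cells pretreated 45 min with increasing compound concentrations, with a reference inhibitor series as internal control. FAK from lysates captured by specific antibody on ELISA plate or LUMINEX beads; tyrosine phosphorylation detected with anti-phosphotyrosine antibody by chemiluminescence or fluorescence.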

PDGFRβ = PDGFRβ (Homo sapiens, UniProt P09619); experiment: Inhibition of PDGFRβ (flashplate assay); format: biochemical; settings: flashplate method
Chain of PDGFRβ (P09619 33-1106, species assumed): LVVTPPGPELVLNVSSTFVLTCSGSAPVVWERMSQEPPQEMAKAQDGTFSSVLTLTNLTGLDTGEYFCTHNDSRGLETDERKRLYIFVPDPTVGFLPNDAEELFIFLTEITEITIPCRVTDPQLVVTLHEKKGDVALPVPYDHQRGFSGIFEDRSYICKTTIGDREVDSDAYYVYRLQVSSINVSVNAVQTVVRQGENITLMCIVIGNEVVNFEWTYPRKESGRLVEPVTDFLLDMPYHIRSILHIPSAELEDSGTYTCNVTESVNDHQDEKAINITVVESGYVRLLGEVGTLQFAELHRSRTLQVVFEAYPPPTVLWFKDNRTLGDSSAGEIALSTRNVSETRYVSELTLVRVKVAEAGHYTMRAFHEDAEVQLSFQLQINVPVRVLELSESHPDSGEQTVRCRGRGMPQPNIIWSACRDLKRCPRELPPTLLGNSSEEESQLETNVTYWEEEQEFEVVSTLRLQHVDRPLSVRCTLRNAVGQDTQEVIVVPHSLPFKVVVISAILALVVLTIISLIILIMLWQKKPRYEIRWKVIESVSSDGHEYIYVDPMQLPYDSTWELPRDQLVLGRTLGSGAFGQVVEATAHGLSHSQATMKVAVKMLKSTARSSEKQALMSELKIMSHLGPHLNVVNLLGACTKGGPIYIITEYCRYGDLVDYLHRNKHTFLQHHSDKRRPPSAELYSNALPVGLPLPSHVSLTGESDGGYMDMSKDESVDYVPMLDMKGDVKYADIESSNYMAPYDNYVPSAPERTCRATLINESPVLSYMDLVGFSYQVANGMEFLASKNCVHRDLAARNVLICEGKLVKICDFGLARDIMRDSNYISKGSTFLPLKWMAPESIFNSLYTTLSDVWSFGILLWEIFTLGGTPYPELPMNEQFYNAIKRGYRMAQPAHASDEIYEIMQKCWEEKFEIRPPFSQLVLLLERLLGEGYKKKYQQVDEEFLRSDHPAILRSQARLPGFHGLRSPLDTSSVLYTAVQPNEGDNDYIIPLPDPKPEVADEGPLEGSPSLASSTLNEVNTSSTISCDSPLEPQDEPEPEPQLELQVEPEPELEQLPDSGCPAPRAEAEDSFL
Method in brief: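 Autophosphorylation of PDGFRβ kinase with ^33P-ATP, ± test compound, 3 hr at room temperature in flashplates. Stopped with EDTA, washed, and bound radioactivity counted by scintillation. IC50 calculated from the counts.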

TGFβR1 = biological target: T3, TGFβR1 (Homo sapiens, UniProt P36897); experiment: Inhibition of TGFβR1 (flashplate assay); format: biochemical; settings: flashplate method
T3 sequence (P36897 34-503): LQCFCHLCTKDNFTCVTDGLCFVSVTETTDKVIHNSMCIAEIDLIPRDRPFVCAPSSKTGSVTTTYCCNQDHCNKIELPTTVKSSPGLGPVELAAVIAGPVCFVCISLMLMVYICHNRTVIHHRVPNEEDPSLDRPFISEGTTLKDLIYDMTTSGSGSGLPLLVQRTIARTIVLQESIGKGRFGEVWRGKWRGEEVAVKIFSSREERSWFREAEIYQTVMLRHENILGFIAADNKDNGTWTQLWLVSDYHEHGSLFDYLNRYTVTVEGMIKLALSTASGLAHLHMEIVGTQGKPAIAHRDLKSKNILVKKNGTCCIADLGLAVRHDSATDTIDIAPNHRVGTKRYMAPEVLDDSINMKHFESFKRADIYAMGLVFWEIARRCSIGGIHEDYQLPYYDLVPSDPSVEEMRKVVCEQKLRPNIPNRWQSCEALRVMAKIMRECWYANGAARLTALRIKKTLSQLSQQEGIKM
Method in brief: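 Kinase was incubated 45 min with 33P-ATP and biotinylated substrate, with or without test substances, then stopped with EDTA. Incorporated radioactivity was counted by scintillation in a flashplate format. IC50 values were calculated from the counts.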

Chain of IGF1R (P08069 31-1367, species assumed): as the sequence (P08069 31-1367) above

Row | IC50 (IGF1R) [nM] | IC50 (IGF1 receptor (IGF1R)) [nM] | IC50 [1] [nM] | IC50 (PDGFRβ) [nM] | IC50 (TGFβR1) [nM] | Compound
1 | 930 | 5000 | 370 | 150 | 180 | NCC1CC(n2cc(-c3ccc4[nH]ccc4c3)c3c(N)ncnc32)C1 (centres unmarked) [Compound 3, 7-(3-Aminomethylcyclobutyl)-5-(1H-indol-5-yl)-7H-pyrrolo[2,3-d]pyrimidin-4-ylamine]
2 | 60 | 2400 | 77 | 97 | 120 | Nc1ncnc2c1c(-c1cccc(O)c1)cn2C1CC(CN2CCCC2)C1 (centres unmarked) [Compound 1, 3-[4-amino-7-(3-pyrrolidin-1-ylmethylcyclobutyl)-7H-pyrrolo[2,3-d]pyrimidin-5-yl]phenol]
3 | 8400 | 29000 | 6100 | 170 | 210 | NCC1CC(n2cc(-c3cc4ccccc4o3)c3c(N)ncnc32)C1 (centres unmarked) [Compound 37]
4 | 110 | 5900 | 260 | 120 | 140 | Nc1ncnc2c1c(-c1cccc(O)c1)cn2C1CC(CN2CCCC2)C1 (centres unmarked) [Compound 2, 3-[4-Amino-7-(3-pyrrolidin-1-ylmethylcyclobutyl)-7H-pyrrolo[2,3-d]pyrimidin-5-yl]phenol]
